# Patent US20250000850A1, “COMPOSITION USED TO PREVENT OR SUPPRESS REFEEDING SYNDROME” (OTSUKA PHARMACEUTICAL FACTORY, INC., priority 2021, published 2025)
# Experiment: Effect of rapamycin on blood phosphorus concentration after refeeding to protein-undernourished rats
# Assay type: in vivo, male Wistar rats
# Settings: rapamycin 2 mg/mL at 0.75 mL/kg i.p., mean ± SD, n=8
# Experimental: Using male Wistar rats (7 weeks old at time of purchase; Charles River Laboratories Japan, Inc.), a group of rats fed with a purified diet having a protein content of 2.5% (referred to below as “low-protein diet”) for at least 3 weeks, and a group of rats fed with a purified diet having a protein content of 20% (referred to below as “normal diet”) for at least 3 weeks were prepared. […] Each animal had access to tap water ad libitum for at least 3 weeks. After fasting with ad libitum access to water for 24 hours, jugular vein catheterization was performed under isoflurane anesthesia, and the other end of the catheter was passed under the skin, exited from the back, and connected to a syringe containing physiological saline via a harness. The rats were then kept in individual metabolic cages with the catheter being open. Post-operatively, an antibiotic (ampicillin) was injected intramuscularly at a dose of 5 mg/100 μL/rat. After recovery from anesthesia, blood (400 μL) was collected from the catheter placed in the jugular vein, then injected into a tube containing sodium heparin, and stored on ice. The blood was promptly fractionated to obtain plasma, and the inorganic phosphorus concentration in the plasma was promptly measured using a Fuji Dry Chem Slide (produced by Fuji Film Corporation). The rats were grouped into predetermined groups using the obtained measurements and body weight data as indices.
# The physiological saline was replaced with a nutrient infusion preparation or an electrolyte preparation at 5 p.m. to start administration to the animals. The nutrient infusion preparation used was Elneopa-NF No. 2 infusion (produced by Otsuka Pharmaceutical Factory Co., Ltd.). The electrolyte formulation used was an electrolyte infusion preparation composed of the electrolyte contained in Elneopa-NF No. 2 infusion. […] Immediately before administering these preparations, either a solvent (dimethyl sulfoxide, produced by Fujifilm Wako Pure Chemicals Corporation; referred to below as “DMSO”) or a solution of 2 mg/mL of rapamycin (produced by Tokyo Chemical Industry Co., Ltd.) whose side effect of inhibiting muscle synthesis was known was intraperitoneally administered by bolus at a dose of 0.75 mL/kg in each case. […]
# Starting at 9 a.m. on the day after the start of administration, blood was collected from the abdominal aorta by using a syringe under isoflurane anesthesia. […] The concentration of inorganic phosphorus in the plasma was determined by an enzymatic method (Determiner L, produced by Hitachi Chemical Diagnostics Systems Co., Ltd.).
structure (smiles),measurement,setting,value
CO[C@H]1C[C@@H]2CC[C@@H](C)[C@@](O)(O2)C(=O)C(=O)N2CCCC[C@H]2C(=O)O[C@H]([C@H](C)C[C@@H]2CC[C@@H](O)[C@H](OC)C2)CC(=O)[C@H](C)/C=C(\C)[C@@H](O)[C@@H](OC)C(=O)[C@H](C)C[C@H](C)/C=C/C=C/C=C/1C [rapamycin],Plasma phosphorus concentration after administration,"LPD (electrolyte + rapamycin): low-protein diet rats, electrolyte infusion 16 h",6.1 ± 0.6 mg/dL
same,Plasma phosphorus concentration after administration,"LPD (refeeding + rapamycin): low-protein diet rats, nutrient infusion 16 h",4.2 ± 0.4 mg/dL
same,Plasma phosphorus concentration after administration,"NPD (electrolyte + rapamycin): normal diet rats, electrolyte infusion 16 h",6.4 ± 0.4 mg/dL
same,Plasma phosphorus concentration after administration,"NPD (refeeding + rapamycin): normal diet rats, nutrient infusion 16 h",4.7 ± 0.4 mg/dL
